The test system of data set [1] is 22Rv1 xenografts. The experiment in a line: Pilot 22Rv1 xenograft in castrated nude mice, Relcovaptan IP. To be noted: 2.5 mg/kg IP, 5 times per week. Type of data set: in vivo. The method, then: FIG. 8. […] 22RV1 cells (2×106) resuspended in BD Matrigel were injected into both hind flanks of castrated nude mice (n=8). […] Top graph, once palpable, tumor size was measured five days per week. Significance was determined using a Student's t-test comparing to vehicle controls (* p<0.05). Lower graph, mice were weighed five days per week.

The subject of data set [2] is 22Rv1, VCaP and RWPE1 cells. The experiment in a line: Relcovaptan on prostate cancer cell growth / anchorage independent growth (Example 10). The format is cell-based, human. As to the method:
The effect of an AVPR1a antagonist on the anchorage independent growth of a castration-resistant prostate cancer cell line (i.e., 22Rv1) was evaluated.

Data set [3] concerns ERK phosphorylation. The data set can be described thus: Total and phosphoERK after AVP stimulation of 22Rv1 with AVPR1a antagonist pretreatment (FIG. 18). The format is cell-based, human. To be noted: 10 nM AVP, antagonist pretreatment. As to the method:
Total and phosphoERK levels were assessed following stimulation of 22Rv1 with 10 nM AVP for 25 minutes and pretreatment with AVPR1a antagonist (or vehicle control).

The test system of data set [4] is 22Rv1 cells. The experiment in a line: SR49059 treatment, cell number and trypan blue cell death, 22Rv1. Type of data set: cell-based, human. Particulars: low nanomolar concentrations, five days. The method, then:
(§1) FIGS. 7A-7I. Pharmacologic blockade of AVPR1a decreases human prostate cancer cell but not normal prostate epithelial cell proliferation and selectively kills human prostate cancer cells. (A) 22Rv1, (B) CWR-R1, (C) PC3, and (D) RWPE-1 cells were treated with vehicle or SR49059 at the indicated concentrations and harvested five days post treatment. A representative experiment (of four) was performed in triplicate and data are plotted as cell number (thousands)±SD. Significance was determined using a Student's t-test comparing to vehicle controls (**, p<0.01; ***, p<0.001). (E) 22Rv1, (F) CWR-R1, (G) PC3 or (H) RWPE-1 cells were plated and grown as described above. Adherent and floating cells were harvested and cells that stained with trypan blue or that excluded stain were counted. A representative experiment (of four) was performed in triplicate. Significance was determined using a Student's t-test comparing to vehicle controls (**, p<0.01; ***, p<0.001). (I) Lysates from cells in (A)-(D) were immunoblotted with antibodies that recognize cleaved PARP and actin.

Data set [5] relates to RWPE1 cells. The data set can be described thus: SR49059 treatment, cell number and trypan blue cell death, RWPE-1 normal prostate epithelial cells. Type of data set: cell-based, human. As to the method:
as §1

In data set [6] the test system is PC3 cells. The experiment in a line: SR49059 treatment, cell number and trypan blue cell death, PC3. The format is cell-based, human. To be noted: low nanomolar concentrations, five days. The method, then:
as §1

Data set [7] deals with ERK1/2 phosphorylation. The experiment in a line: Phospho-ERK1/2 immunoblot, AVP plus/minus Relcovaptan (FIG. 10). Type of data set: cell-based, human. Particulars: 22Rv1 or CWR-R1; 1 nM AVP plus 1 nM Relcovaptan; 25 min. The text has this:
FIG. 10. […] Lysates were immunoblotted for phospho-ERK1/2 and total ERK1/2.
Background: Immunoblotting shows a protein as a band on a membrane.

The subject of data set [8] is CWR-R1 cells. The data set can be described thus: SR49059 treatment, cell number and trypan blue cell death, CWR-R1. The format is cell-based, human. Particulars: low nanomolar concentrations, five days. The method, then: as §1
Data set [9] relates to cleaved PARP. The experiment in a line: Immunoblot for cleaved PARP after Relcovaptan treatment. Type of data set: cell-based, human. As to the method:
as §1

For data set [10], the system named is VCaP xenografts. The experiment in a line: Castration resistant VCaP xenografts in SCID mice, oral Relcovaptan. Type of data set: in vivo. To be noted: 50 mg/kg daily oral gavage, 14 days. The method, then: Subcutaneous VCaP xenografts (bilateral) were established in SCID mice. Mice were castrated when tumors reached 250-300 mm^3. […] Circulating prostate specific antigen (PSA) was measured by ELISA in mice prior to tumor xenografting (baseline), at the time of castration (pre-treatment) and at the time of sacrifice (post-treatment).

Data set [11] relates to LNCaP cells. The experiment in a line: Relcovaptan treatment of androgen dependent LNCaP cells (data not shown). The format is cell-based, human.
In data set [12] the test system is CRPC cells (PC3, 22RV1, LNCaP-abl, C4-2, CWR-R1). The data set can be described thus: shAVPR1a depletion, live cell counting, CRPC cells (Example 8). Type of data set: cell-based, human. The text has this: (§2) (● shGFP served as a control, SEQ ID NO: 5-[…] A summary of the human prostate cell lines used is provided below in Table 1:
(§3) Data represent three independent experiments performed in triplicate for all cell lines except C4-2, which was done one time in triplicate. […] A second distinct AVPR1a shRNA produced similar results (data not shown).

Data set [13] concerns 22Rv1 cells. The experiment in a line: shAVPR1a depletion, growth curves and trypan blue cell death, 22Rv1. Type of data set: cell-based, human. To be noted: 22Rv1 stably expressing shAVPR1a vs shGFP. The text has this: (§4) FIGS. 3A-3D. Depletion of AVPR1a decreases aggressive prostate cancer cell proliferation. […] Live cells (trypan blue exclusion) were counted at the indicated times (hr). Significant differences (p<0.05) in proliferation between shGFP and shAVPR1a-transduced cells occurred by 48-72 hr in CRPC (A-C) but not in normal prostate epithelial cells, RWPE-1 (D). Lower panels quantify AVPR1a mRNA depletion by shRNA in each cell line.
(§5) FIGS. 4A-4E. Depletion of AVPR1a promotes death of aggressive prostate cancer cells. (A) 22Rv1, (B) CWR-R1, (C) PC3 or (D) RWPE-1 cells stably expressing either plk0.1-shGFP or -shAVPR1a were plated and grown as in FIG. 3. Adherent and floating cells were harvested and cells that stained with trypan blue or that excluded stain were counted. Data represent three independent experiments performed in triplicate. Significance was determined using a Student's t-test comparing to shGFP controls (***, p<0.001). (E) Cell lysates were immunoblotted with antibodies that recognize cleaved PARP, cyclin A, and actin.

Data set [14] deals with cleaved PARP, Cyclin A, p-RB. The data set can be described thus: Immunoblot of apoptosis and G1/S cell-cycle markers after AVPR1a depletion. The format is cell-based, human. As to the method: as §5
(§6) This finding is significant as AR splice variants are a proposed mechanism of resistance to drugs that target full length AR including the newer agents, abiraterone and enzalutamide (6,7). Thus, targeting AVPR1a may be a strategy to overcome therapeutic resistance to these next generation drugs.
Next, Western-blot analysis was performed in PC3, 22Rv1 and LNCaP Abl (CRPC) and RWPE1 (non-tumorigenic prostate epithelial cells) to examine G1/S cell-cycle markers: Cyclin A, p-RB or P27.

Data set [15] concerns 22Rv1, CWR-R1 or PC3 cells. The experiment in a line: Soft agar anchorage independent growth after AVPR1a depletion. The format is cell-based, human. As to the method: FIG. 6. AVPR1a is necessary for anchorage independent growth of human prostate cancer cells. The growth in soft agar of 22Rv1, CWR-R1 or PC3 cells stably expressing the indicated shRNA vectors was assessed. Average colony number per plate±SEM is plotted. Data represent two independent experiments performed in triplicate. Significance was determined using a Student's t-test comparing to shGFP controls (***, p<0.001).
as §6
Next, PC3 and 22RV1 cells (CRPC cell lines) in which AVPR1a was depleted (or control shGFP) were cultured in soft agar for three weeks to assess anchorage independent growth (anoikis resistance).

In data set [16] the test system is PC3 cells. The data set can be described thus: shAVPR1a depletion, growth curves and trypan blue cell death, PC3. The format is cell-based, human. Particulars: PC3 stably expressing shAVPR1a vs shGFP.
Text: as §4, §5

Data set [17] deals with RWPE1 cells. The data set can be described thus: shAVPR1a depletion, growth curves and trypan blue cell death, RWPE1. Type of data set: cell-based, human. To be noted: RWPE1 stably expressing shAVPR1a vs shGFP.
Text: as §4, §5

The test system of data set [18] is androgen dependent cells, LNCaP, VCaP and non-tumorigenic prostate epithelial RWPE1 cells. The experiment in a line: shAVPR1a depletion, live cell counting, androgen dependent and normal cells (Example 8). Type of data set: cell-based, human.
Text: as §2, §3

Data set [19] relates to full length AR and AR splice variants. The data set can be described thus: Immunoblot of AR after AVPR1a depletion in 22Rv1. Type of data set: cell-based, human.
Text: FIG. 5. AVPR1a knock down results in down-regulation of androgen receptor (AR) and AR splice variant expression in human prostate cancer cells. […] ARdeltaLBD refers to C-terminally truncated AR splice variants such as AR3.
as §6

For data set [20], the system named is CWR-R1 cells. The data set can be described thus: shAVPR1a depletion, growth curves and trypan blue cell death, CWR-R1. To be noted: CWR-R1 stably expressing shAVPR1a vs shGFP. Type of data set: cell-based, human.
Text: as §4, §5

“Also recorded” adds a separate entry of the source.

As for `COc1ccc(S(=O)(=O)N2c3ccc(Cl)cc3[C@](O)(c3ccccc3Cl)[C@@H]2C(=O)N2CCC[C@H]2C(N)=O)cc1OC` [Relcovaptan], the “adverse effects / toxicity” value in [1] is “no adverse effects; also recorded: lack of toxicity”. For the same compound, the tumor growth result in data set [1] (castrated nude mice) is given as “significantly decreased tumor growth at early time points; also recorded: decreases CRPC in vivo growth at early time points”. Also, the anchorage independent growth entry in [2] (10 μM or 25 μM, six days, FIG. 17) is listed as “inhibits prostate cancer cell anchorage independent growth”. Moreover, the “prostate cancer cell proliferation” value in data set [2] (FIG. 16) is given as “inhibits prostate cancer cell proliferation”. For the same compound, the entries for the “block of AVP-stimulated phosphoERK” value in data set [3] and in [3] (listed as relcovaptan) were “blocks ERK signaling” and “blocked”, respectively. Also, the cell death result in [4] is reported as “promoted CRPC cell death”; in data set [5] (doses as high as 10 μM, data not shown), “did not promote RWPE1 cell death”; in data set [6], “promotes cell death; also recorded: promoted CRPC cell death”; in [8], “promoted CRPC cell death”; in data set [11] it was “approx. 20%”. In addition, the proliferation result in data set [4], in data set [6] and in data set [8] was “inhibited proliferation” in each case. In data set [5] (1-10 nM), the cell proliferation entry is reported as “no effect”. Moreover, the cell survival result in [5] (1-10 nM) was “no effect”. The “inhibition of AVP-stimulated ERK phosphorylation” value in data set [7] was “inhibited this phosphorylation of ERK”. The “cleavage of PARP” value is “cleavage of PARP” in data set [9] (PC cells) and “not normal prostate cells” in [9] (normal prostate cells). For the same compound, the “body weight vs controls” value in data set [10] was “no loss of weight”. For the same compound, the “growth of castration resistant VCaP xenografts” value in data set [10] (started seven days after castration) is given as “significantly slowed the growth; also recorded: slows growth of VCaP tumors”. In addition, the “circulating PSA levels” value in data set [10] (ELISA) is on record as “stabilization of PSA levels”. The growth result in [11] is “inhibited growth inhibition”.

“shAVPR1a: selective shRNA to AVPR1a, SEQ ID NO: 2 (hairpin printed as SEQ ID NO: 4 in b155) (GGTATGTGGAAGGACTCGCCTAAATCTTC)”: in data set [12], the “proliferation of CRPC cells” value was “greatly decreased proliferation”. The cell death entry in [13] is recorded as “increased cell death”; in [16], “increased cell death”; in [17], “not the normal human prostate epithelial RWPE1 cells”; in data set [20], “increased cell death”. Moreover, the cell proliferation result in [13], in [16] and in [20] was “decreased cell proliferation” each time. The PARP cleavage result is “observed” in data set [14] (AVPR1a-depleted PC cells) and “not in RWPE1 cells” in [14] (RWPE1 cells). In data set [14] (CRPC lines PC3, 22Rv1, LNCaP Abl, Example 8), the “cyclin A” value is “decreased cyclin A”. Moreover, the “phosphorylation of the retinoblastoma protein” value in data set [14] (PC3 and 22Rv1, Example 8) was “decreased phosphorylation of the retinoblastoma protein”; in [14] (RWPE1, Example 8), “not RWPE1 cells”. For the same compound, the “Cyclin A levels (G1 to S progression)” value in data set [14] (PC cells, Example 1) is recorded as “decreased levels of Cyclin A”. Besides, the anchorage independent growth entry in data set [15] (PC3 and 22RV1, soft agar, three weeks, Example 8) is “significantly reduced anchorage independent growth”. The “anchorage independent growth in soft agar” value in data set [15] (three PC cell lines (22Rv1, CWR-R1, PC3)) is “inhibition of anchorage independent growth in soft agar”. The “androgen dependent and normal prostate epithelial cell proliferation” value in data set [18] is “less effect”. The “levels of full length AR and AR splice variants” value in data set [19] is “decreased levels of full length AR and AR splice variants”.

The values above are taken from patent US10231952B2, “Use of arginine vasopressin receptor antagonists for the treatment of prostate cancer” (UNIVERSITY OF MIAMI, priority 2014, dated 2019).
